Experimental data as given in BindingDB's records for doi:10.1021/jm00394a022 (Pennsylvania State University, 1987).

Tests used:
[1] = target: Glutamine synthetase (Pisum sativum); assay: Compound was evaluated for binding affinity by the inhibition of Glutamine synthetase (Pea seed) activity using biosynthetic assay [noncompetitive inhibition]
[2] = target: Glutamine synthetase (Ovis aries); assay: Compound was evaluated for binding affinity by the inhibition of Glutamine synthetase (Ovine brain) activity using biosynthetic assay [competitive inhibition]
[3] = target: Glutamine synthetase (Escherichia coli) (UniProt P0A9C5); assay: Compound was evaluated for binding affinity by the inhibition of Glutamine synthetase (Escherichia coli) activity using biosynthetic assay [mixed Non-competitive inhibition]
Chain of Glutamine synthetase (Escherichia coli) (P0A9C5 whole entry, looked up): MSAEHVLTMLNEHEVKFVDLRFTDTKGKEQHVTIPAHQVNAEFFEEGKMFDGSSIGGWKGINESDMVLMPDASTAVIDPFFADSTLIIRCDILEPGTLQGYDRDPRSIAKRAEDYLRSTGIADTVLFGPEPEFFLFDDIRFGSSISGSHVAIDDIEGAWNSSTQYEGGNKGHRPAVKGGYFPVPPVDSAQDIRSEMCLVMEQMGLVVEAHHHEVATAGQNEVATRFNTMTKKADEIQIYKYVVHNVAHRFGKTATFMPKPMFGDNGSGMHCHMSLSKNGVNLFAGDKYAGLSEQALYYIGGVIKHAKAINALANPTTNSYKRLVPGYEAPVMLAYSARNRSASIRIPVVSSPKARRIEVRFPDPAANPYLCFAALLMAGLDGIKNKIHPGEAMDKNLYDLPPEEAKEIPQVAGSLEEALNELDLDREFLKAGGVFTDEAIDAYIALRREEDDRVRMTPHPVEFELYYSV

Ki [1]: 250 µM
Ki [2]: 750 µM
Ki [3]: 75 µM
SMILES: NC(CCP(=O)(O)CP(=O)(O)O)C(=O)O (stereo not drawn) [2-ammonio-4-[hydroxy(phosphonomethyl)phosphoryl]butanoate]
